Entries after “also recorded” stand apart in the source; their conditions may differ. Marks after values point to notes of the source that are not given here.
How the values were obtained:
ACF formation = details: given in the diet, short-term study (ref 10); cited from earlier work
colon tumor incidence = details: AOM treated rats, cited from earlier work
colon tumorigenesis = details: rats; at the dose level studied (refs 29, 30); cited from earlier work
lung tumorigenesis = details: previously reported; cited from earlier work
esophagus tumorigenesis = details: rats; at the dose level studied (refs 29, 30); cited from earlier work
[1] = target: N,N-dimethylnitrosamine (NDMA) demethylase (CYP2E1) (Rattus norvegicus, UniProt P05182); details: rat liver microsomes; previously shown (ref 26); cited from earlier work
N,N-dimethylnitrosamine (NDMA) demethylase (CYP2E1), sequence (P05182 whole entry): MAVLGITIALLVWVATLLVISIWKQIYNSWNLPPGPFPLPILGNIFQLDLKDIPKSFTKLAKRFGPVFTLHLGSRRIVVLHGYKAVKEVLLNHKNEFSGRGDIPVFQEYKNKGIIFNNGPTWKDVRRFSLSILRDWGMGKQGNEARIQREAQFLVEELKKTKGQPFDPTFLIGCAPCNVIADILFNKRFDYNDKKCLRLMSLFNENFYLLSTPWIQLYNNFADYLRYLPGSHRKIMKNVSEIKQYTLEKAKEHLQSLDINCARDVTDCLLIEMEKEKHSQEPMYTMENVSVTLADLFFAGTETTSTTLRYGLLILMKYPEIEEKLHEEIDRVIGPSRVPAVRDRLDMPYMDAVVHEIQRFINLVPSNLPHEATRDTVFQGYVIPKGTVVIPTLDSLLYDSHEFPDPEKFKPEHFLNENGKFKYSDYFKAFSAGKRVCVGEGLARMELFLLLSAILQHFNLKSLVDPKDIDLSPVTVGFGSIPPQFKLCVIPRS

[2] = tested on: aberrant crypt foci (ACF) induced by azoxymethane (AOM) in the colon; assay: AOM-induced colonic aberrant crypt foci (ACF) bioassay; type: in vivo, Male F344 rats
From the text: The inventors designed a bioassay to examine whether SFN and PEITC can inhibit the formation of aberrant crypt foci (ACF) induced by azoxymethane (AOM) in Fischer rats. ACF has been recognized as an early preneoplastic lesion of colon cancer (7-9) and it is generally observed that agents that inhibit colonic ACF formation would show chemopreventive activity against colon cancer (10). […] The structures of SFN and PEITC and their NAC conjugates are shown below. Two treatment regimens in which SFN and PEITC or their NAC conjugates were administered either after (post-initiation) or before (initiation) AOM treatment were used in the bioassay in order better to define the possible mechanism of action. [drawing 1] Male F344 rats were from Charles River (Kingston, N.Y.). They were fed AIN-76A diet (5% corn oil) and tap water ad libitum. […] PEITC and SFN were purchased from Aldrich Chemical Company (Milwaukee, Wis.) and LTK Labs, Inc. (St. […] The corresponding NAC conjugates were prepared by a published method (13, 26). The purity of the conjugates was greater than 97% as determined by high-performance liquid chromatography. AOM obtained from Ash-Stevens (Detroit, Mich.) was dissolved in saline and administered subcutaneously once a week for two weeks. SFN and PEITC in corn oil and the NAC conjugates in saline (10% DMSO) were given by gavage. Groups 2 to 5 were given 5 μmol SFN or PEITC or 20 μmol of the NAC conjugates, three doses each week for eight weeks, beginning two days after the last dose of AOM. Groups 6 to 9 were treated with three doses of ITC compounds (20 μmol ITC or 50 μmol ITC-NAC) once daily and the last dose was given 2 hr before AOM dosing. This dosing regimen was repeated during the second week of AOM dosing. Groups 10 to 13 were treated with ITCs (5 μmol/dose) or the conjugates (20 μmol/dose) only, three times weekly for eight weeks. Group 14 served as the control group. The bioassay was terminated at week 10 after the second AOM treatment. The colon was processed for microscopic examination and the ACF were recorded using a standard procedure described previously (14). […] For statistical analysis, means were compared among the groups using one-way analysis of variance (ANOVA) followed by Fisher's protected t-test.

[3] = Toxicity observations (body weight, gastrointestinal symptoms) in the ACF bioassay
[4] = dog, in vivo; cited from earlier work
[5] = ITC compound only, no AOM: 5 μmol/dose ITC or 20 μmol/dose conjugate, three times weekly for eight weeks
[6] = initiation (pretreatment): 20 μmol ITC or 50 μmol ITC-NAC before AOM, negative = enhancement
[7] = initiation (pretreatment): 20 μmol ITC or 50 μmol ITC-NAC by gavage before AOM, AOM alone (Group 1) 52
[8] = initiation (pretreatment): 20 μmol ITC or 50 μmol ITC-NAC by gavage before AOM, AOM alone (Group 1) 153
[9] = post-initiation: 5 μmol SFN or PEITC or 20 μmol NAC conjugate by gavage, three doses weekly for eight weeks after AOM, AOM alone (Group 1) 52
[10] = post-initiation: 5 μmol SFN or PEITC or 20 μmol NAC conjugate by gavage, three doses weekly for eight weeks after AOM, AOM alone (Group 1) 153
[11] = post-initiation: 5 μmol SFN or PEITC or 20 μmol NAC conjugate, three doses weekly for eight weeks after AOM
[12] = initiation: ITC compound by gavage before AOM, 20 μmol ITC or 50 μmol ITC-NAC, three doses once daily, last 2 hr before AOM, repeated in second week
[13] = post-initiation: ITC compound by gavage after AOM, 5 μmol SFN or PEITC or 20 μmol NAC conjugate, three doses each week for eight weeks

Compound: S=C=NCc1ccccc1 [BITC, benzyl isothiocyanate]
- Activity towards ACF formation (ACF formation): inactive; also recorded: slightly induce ACF formation
- Effect on colon tumor incidence, initiation phase (colon tumor incidence; initiation phase (ref 34)): inhibit
- Effect on colon tumor incidence, post-initiation phase (colon tumor incidence; post-initiation phase (ref 34)): not during the post-initiation phase

Compound: S=C=NCCCCCCc1ccccc1 [phenylhexyl ITC]
- Effect on colon tumorigenesis (colon tumorigenesis): enhanced
- Effect on lung tumorigenesis (lung tumorigenesis): potent inhibitor
- Effect on esophagus tumorigenesis (esophagus tumorigenesis): enhanced

Compound: CC(=O)N[C@@H](CSC(=S)NCCc1ccccc1)C(=O)O [PEITC-NAC, N-acetylcysteine conjugate of PEITC]
- Inhibition of NDMA demethylase (CYP2E1) [1]: inhibitors
- Number of aberrant crypt foci >4 Crypts [2, 5]: 0
- Number of aberrant crypt foci Total [2, 5]: 0
- Percent of inhibition compared to Group 1, Total aberrant crypt foci [2, 6]: (−29)^e %
- Percent of inhibition compared to Group 1, aberrant crypt foci >4 Crypts [2, 6]: (−42)^c %
- Number of aberrant crypt foci >4 Crypts [2, 7]: 74
- Number of aberrant crypt foci Total [2, 8]: 198
- Number of aberrant crypt foci >4 Crypts [2, 9]: 38
- Number of aberrant crypt foci Total [2, 10]: 113
- Percent of inhibition compared to Group 1, Total aberrant crypt foci [2, 11]: (26)^e %
- Percent of inhibition compared to Group 1, aberrant crypt foci >4 Crypts [2, 11]: (27)^f %
- Average Body Weight at Termination [3, 5]: 301
- Average Body Weight at Termination [3, 12]: 303
- Average Body Weight at Termination [3, 13]: 313

Compound: C[S+]([O-])CCCCN=C=S (centres unmarked) [SFN, sulforaphane]
- Number of aberrant crypt foci >4 Crypts [2, 5]: 0
- Number of aberrant crypt foci Total [2, 5]: 0
- Percent of inhibition compared to Group 1, Total aberrant crypt foci [2, 6]: (29)^c %
- Percent of inhibition compared to Group 1, aberrant crypt foci >4 Crypts [2, 6]: (33)^f %
- Number of aberrant crypt foci >4 Crypts [2, 7]: 35
- Number of aberrant crypt foci Total [2, 8]: 109
- Number of aberrant crypt foci >4 Crypts [2, 9]: 30
- Number of aberrant crypt foci Total [2, 10]: 103
- Percent of inhibition compared to Group 1, Total aberrant crypt foci [2, 11]: (33)^d %
- Percent of inhibition compared to Group 1, aberrant crypt foci >4 Crypts [2, 11]: (42)^b,c %
- Average Body Weight at Termination [3, 5]: 309
- Average Body Weight at Termination [3, 12]: 310
- Average Body Weight at Termination [3, 13]: 301

Compound: N-acetylcysteine conjugate of SFA [SFN-NAC]
- Number of aberrant crypt foci >4 Crypts [2, 5]: 0
- Number of aberrant crypt foci Total [2, 5]: 0
- Percent of inhibition compared to Group 1, Total aberrant crypt foci [2, 6]: (22)^c %
- Percent of inhibition compared to Group 1, aberrant crypt foci >4 Crypts [2, 6]: 15%
- Number of aberrant crypt foci >4 Crypts [2, 7]: 44
- Number of aberrant crypt foci Total [2, 8]: 120
- Number of aberrant crypt foci >4 Crypts [2, 9]: 31
- Number of aberrant crypt foci Total [2, 10]: 116
- Percent of inhibition compared to Group 1, Total aberrant crypt foci [2, 11]: (24)^c %
- Percent of inhibition compared to Group 1, aberrant crypt foci >4 Crypts [2, 11]: (40)^c %
- Average Body Weight at Termination [3, 5]: 312
- Average Body Weight at Termination [3, 12]: 304
- Average Body Weight at Termination [3, 13]: 297

Compound: S=C=NCCc1ccccc1 [PEITC, phenethyl isothiocyanate]
- Dose at which dose related weight loss became statistically significant [4]: 8 mg/kg
- Dose at which signs of irritation of the mucosa of the urinary bladder were reported [4]: ≥ 4 mg/kg/day
- Dose levels at which diarrhea and vomiting, with gastrointestinal irritation, occurred sporadically [4]: ≥ 2 mg/kg
- Inhibition of NDMA demethylase (CYP2E1) [1]: inhibitors
- Activity towards ACF formation (ACF formation): inactive
- Percent of inhibition compared to Group 1, Total aberrant crypt foci [2, 6]: (25)^c %
- Percent of inhibition compared to Group 1, aberrant crypt foci >4 Crypts [2, 6]: (33)^f %
- Number of aberrant crypt foci >4 Crypts [2, 7]: 35
- Number of aberrant crypt foci Total [2, 8]: 115
- Number of aberrant crypt foci >4 Crypts [2, 9]: 27
- Number of aberrant crypt foci Total [2, 10]: 100
- Percent of inhibition compared to Group 1, Total aberrant crypt foci [2, 11]: (35)^d %
- Percent of inhibition compared to Group 1, aberrant crypt foci >4 Crypts [2, 11]: (48)^c %

Reference: patent US6433011B1, “Method for inhibiting formation of aberrant crypt foci in the colon of a mammal” (American Health Foundation, priority 2000, dated 2002)
